From US20230017045A1, “PYRIDINE AND PYRIMIDINE CARBOXYLATE HERBICIDES AND METHODS OF USE THEREOF” (Dow AgroSciences LLC, priority 2017, published 2023)
Like-named read-outs stand apart in the source and are kept apart here.

System: test plant species
Experiment: Post-emergent herbicidal activity test (greenhouse, foliar spray, visual growth reduction)
Format: in vivo
Conditions: post-emergence, 336 h, 140 g ai/ha
Description: Post-emergent Test: Seeds or nutlets of the desired test plant species were planted in Sun Gro Metro-Mix® 360 planting mixture, which typically has a pH of 6.0 to 6.8 and an organic matter content of about 30 percent, in plastic pots with a surface area of 64 square centimeters. In some aspects, to ensure good germination and healthy plants, a fungicide treatment and/or other chemical or physical treatment was applied. The plants were grown for 7-21 d in a greenhouse with an approximate 15 h photoperiod which was maintained at 23-29° C. during the day and 22-28° C. during the night. Nutrients and water were added on a regular basis and supplemental lighting was provided with overhead metal halide 1000-Watt lamps as necessary. Plants were used for testing when they reached the first or second true leaf stage. A weighed amount, determined by the highest rate to be tested, of each test compound was placed in a 25 mL glass vial and was dissolved in 4 mL of a 97:3 v/v mixture of acetone and DMSO to obtain concentrated stock solutions. […] The concentrated stock solutions obtained were diluted with 20 mL of an aqueous mixture containing acetone, water, isopropyl alcohol, DMSO, […] crop oil concentrate, and X-77 surfactant in a 48.5:39:10:1.5:1.0:0.02 v/v ratio to obtain spray solutions containing the application rate. Compound requirements are based upon a 12 mL application volume at a rate of 187 liters per hectare (L/ha). Formulated compounds were applied to the plant material with an overhead Mandel track sprayer equipped with […] nozzles calibrated to deliver 187 L/ha over an application area of 0.64 square meters at a spray height of 18 inches (43 cm) above the average plant canopy height. Control plants were sprayed in the same manner with the solvent blank. The treated plants and control plants were placed in a greenhouse as described above and watered by subirrigation to prevent wash-off of the test compounds. After 14 d, the condition of the test plants as compared with that of the nontreated and control plants was determined visually and scored on a scale of 0 to 100 percent where 0 corresponds to no injury and 100 corresponds to complete control. In the reporting of the results, Table A: Percent Growth Reduction Conversion Table was used.

[1] = ALOMY: blackgrass (Alopecurus myosuroides), 14 days after application, read-out: Visual Growth Reduction (%) 14 Days After Application, ALOMY
[2] = AMARE: redroot pigweed (Amaranthus retroflexus), 14 days after application, read-out: Visual Growth Reduction (%) 14 Days After Application, AMARE
[3] = AVEFA: wild oat (Avena fatua), 14 days after application, read-out: Visual Growth Reduction (%) 14 Days After Application, AVEFA
[4] = CHEAL: lambsquarters (Chenopodium album), 14 days after application, read-out: Visual Growth Reduction (%) 14 Days After Application, CHEAL
[5] = CIRAR: canada thistle (Cirsium arvense), 14 days after application, read-out: Visual Growth Reduction (%) 14 Days After Application, CIRAR
[6] = CYPES: yellow nutsedge (Cyperus esculentus), 14 days after application, read-out: Visual Growth Reduction (%) 14 Days After Application, CYPES
[7] = DIGSA: crabgrass (Digitaria sanguinalis), 14 days after application, read-out: Visual Growth Reduction (%) 14 Days After Application, DIGSA
[8] = ECHCG: barnyardgrass (Echinochloa crus-galli), 14 days after application, read-out: Visual Growth Reduction (%) 14 Days After Application, ECHCG
[9] = IPOHE: ivy-leaf morning glory (Ipomoea hederacea), 14 days after application, read-out: Visual Growth Reduction (%) 14 Days After Application, IPOHE
[10] = KCHSC: kochia (Bassia scoparia), 14 days after application, read-out: Visual Growth Reduction (%) 14 Days After Application, KCHSC
[11] = ORYSA: rice (Oryza sativa), 14 days after application, read-out: Visual Growth Reduction (%) 14 Days After Application, ORYSA
[12] = SETFA: giant foxtail (Setaria faberi), 14 days after application, read-out: Visual Growth Reduction (%) 14 Days After Application, SETFA
[13] = SORVU: grain sorghum (Sorghum vulgare), 14 days after application, read-out: Visual Growth Reduction (%) 14 Days After Application, SORVU
[14] = STEME: common chickweed (Stellaria media), 14 days after application, read-out: Visual Growth Reduction (%) 14 Days After Application, STEME
[15] = TRZAS: wheat, spring (Triticum aestivum), 14 days after application, read-out: Visual Growth Reduction (%) 14 Days After Application, TRZAS

SMILES	pest or weed control at 140 g/ha [1] [%]	pest or weed control at 140 g/ha [2] [%]	pest or weed control at 140 g/ha [3] [%]	pest or weed control at 140 g/ha [4] [%]	pest or weed control at 140 g/ha [5] [%]	pest or weed control at 140 g/ha [6] [%]	pest or weed control at 140 g/ha [7] [%]	pest or weed control at 140 g/ha [8] [%]	pest or weed control at 140 g/ha [9] [%]	pest or weed control at 140 g/ha [10] [%]	pest or weed control at 140 g/ha [11] [%]	pest or weed control at 140 g/ha [12] [%]	pest or weed control at 140 g/ha [13] [%]	pest or weed control at 140 g/ha [14] [%]	pest or weed control at 140 g/ha [15] [%]	also measured
CO/N=C/c1ccc(-c2ccc(Cl)c(C(=O)OC)n2)c(Cl)c1 [F21, methyl 3-chloro-6-(2-chloro-4-((methoxyimino)methyl)phenyl)picolinate]	0 to 29	0 to 29	0 to 29	0 to 29	0 to 29	0 to 29	0 to 29									pest or weed control at 140 g/ha (barnyardgrass (Echinochloa crus-galli), 14 Days After Application, read-out: Visual Growth Reduction (%) ECHCG): 0 to 29%; pest or weed control at 140 g/ha (common chickweed (Stellaria media), 14 Days After Application, read-out: Visual Growth Reduction (%) STEME): 0 to 29%; pest or weed control at 140 g/ha (giant foxtail (Setaria faberi), 14 Days After Application, read-out: Visual Growth Reduction (%) SETFA): 0 to 29%; pest or weed control at 140 g/ha (ivy-leaf morning glory (Ipomoea hederacea), 14 Days After Application, read-out: Visual Growth Reduction (%) IPOHE): 0 to 29%; pest or weed control at 140 g/ha (johnsongrass (Sorghum vulgare), 14 Days After Application, read-out: Visual Growth Reduction (%) SORVU): 0 to 29%; pest or weed control at 140 g/ha (kochia (Bassia scoparia), 14 Days After Application, read-out: Visual Growth Reduction (%) KCHSC): 0 to 29%; pest or weed control at 140 g/ha (rice (Oryza sativa), 14 Days After Application, read-out: Visual Growth Reduction (%) ORYSA): 0 to 29%; pest or weed control at 140 g/ha (wheat, spring (Triticum aestivum), 14 Days After Application, read-out: Visual Growth Reduction (%) TRZAS): 0 to 29%
COC(=O)c1nc(-c2ccc(C=O)cc2Cl)ccc1Cl [F22, methyl 3-chloro-6-(2-chloro-4-formylphenyl)picolinate]	0 to 29	0 to 29	0 to 29	0 to 29	0 to 29	0 to 29	0 to 29	0 to 29	0 to 29	0 to 29	0 to 29	0 to 29	0 to 29	0 to 29	0 to 29	
C=Cc1ccc(-c2ccc(Cl)c(C(=O)OC)n2)c(Cl)c1 [F23, methyl 3-chloro-6-(2-chloro-4-vinylphenyl)picolinate]	0 to 29	0 to 29	0 to 29	0 to 29	0 to 29	0 to 29	0 to 29	0 to 29	30 to 44	0 to 29	0 to 29	0 to 29	0 to 29	0 to 29	0 to 29	
COC(=O)c1nc(-c2ccc(C(F)(F)F)cc2C#N)ccc1Cl [F24, Methyl 3-chloro-6-(2-cyano-4-(trifluoromethyl)phenyl) picolinate]	0 to 29	85 to 94	0 to 29	95 to 100	95 to 100	0 to 29	85 to 94	85 to 94	95 to 100	60 to 74	0 to 29	45 to 59	85 to 94	0 to 29	0 to 29	
COC(=O)c1nc(-c2ccc(-c3ccc(F)cc3)cc2Cl)ccc1Cl [F25, methyl 3-chloro-6-(3-chloro-4′-fluoro-[1, 1′-biphenyl]-4-yl) picolinate]	0 to 29	0 to 29	0 to 29	0 to 29	0 to 29	0 to 29	0 to 29	0 to 29	0 to 29	0 to 29	0 to 29	0 to 29	30 to 44	0 to 29	0 to 29	
COC(=O)c1nc(-c2ccc(C(C)=O)cc2Cl)ccc1Cl [F26, methyl 6-(4-acetyl-2-chlorophenyl)-3-chloropicolinate]	0 to 29	0 to 29	0 to 29	0 to 29	0 to 29	0 to 29	0 to 29	0 to 29	0 to 29	0 to 29	0 to 29	0 to 29	0 to 29	0 to 29	0 to 29	
COC(=O)c1nc(-c2ccc(Br)cc2Cl)ccc1Cl [F27, Methyl 6-(4-bromo-2-chlorophenyl)-3-chloropicolinate]	0 to 29	60 to 74	0 to 29	45 to 59	75 to 84	0 to 29	60 to 74	0 to 29	85 to 94	30 to 44	0 to 29	0 to 29	60 to 74	0 to 29	0 to 29	
COC(=O)c1nc(-c2ccc(C(F)(F)F)cc2OC)ccc1Cl [F28, Methyl 3-chloro-6-(2-methoxy-4-(trifluoromethyl)phenyl)picolinate]	0 to 29	60 to 74	0 to 29	60 to 74	75 to 84	0 to 29	45 to 59	0 to 29	95 to 100	30 to 44	0 to 29	30 to 44	75 to 84	0 to 29	0 to 29	
